Experimental data published in patent publication US20050026219A1, “Process for label-free measurement of modified substrate” (Boehringer Ingelheim Pharma GmbH & Co. KG, priority 2001, published 2005).
Read-outs that look alike come from different tables or passages of the source. Ends that are not written are not given here.

Tests used:
[1] = target: EGF-RK (Homo sapiens, UniProt P00533); details: cited from earlier work
[2] = target: EGF-receptor kinase (EGF-RK) (Homo sapiens, UniProt P00533); details: for Optical layer thickness: PGT 10 μg/50 μl, EGF-RK 1 Unit/50 μl, EGF-RK buffer with Brij 35
Sequence of EGF-receptor kinase (EGF-RK) (P00533 25-1210): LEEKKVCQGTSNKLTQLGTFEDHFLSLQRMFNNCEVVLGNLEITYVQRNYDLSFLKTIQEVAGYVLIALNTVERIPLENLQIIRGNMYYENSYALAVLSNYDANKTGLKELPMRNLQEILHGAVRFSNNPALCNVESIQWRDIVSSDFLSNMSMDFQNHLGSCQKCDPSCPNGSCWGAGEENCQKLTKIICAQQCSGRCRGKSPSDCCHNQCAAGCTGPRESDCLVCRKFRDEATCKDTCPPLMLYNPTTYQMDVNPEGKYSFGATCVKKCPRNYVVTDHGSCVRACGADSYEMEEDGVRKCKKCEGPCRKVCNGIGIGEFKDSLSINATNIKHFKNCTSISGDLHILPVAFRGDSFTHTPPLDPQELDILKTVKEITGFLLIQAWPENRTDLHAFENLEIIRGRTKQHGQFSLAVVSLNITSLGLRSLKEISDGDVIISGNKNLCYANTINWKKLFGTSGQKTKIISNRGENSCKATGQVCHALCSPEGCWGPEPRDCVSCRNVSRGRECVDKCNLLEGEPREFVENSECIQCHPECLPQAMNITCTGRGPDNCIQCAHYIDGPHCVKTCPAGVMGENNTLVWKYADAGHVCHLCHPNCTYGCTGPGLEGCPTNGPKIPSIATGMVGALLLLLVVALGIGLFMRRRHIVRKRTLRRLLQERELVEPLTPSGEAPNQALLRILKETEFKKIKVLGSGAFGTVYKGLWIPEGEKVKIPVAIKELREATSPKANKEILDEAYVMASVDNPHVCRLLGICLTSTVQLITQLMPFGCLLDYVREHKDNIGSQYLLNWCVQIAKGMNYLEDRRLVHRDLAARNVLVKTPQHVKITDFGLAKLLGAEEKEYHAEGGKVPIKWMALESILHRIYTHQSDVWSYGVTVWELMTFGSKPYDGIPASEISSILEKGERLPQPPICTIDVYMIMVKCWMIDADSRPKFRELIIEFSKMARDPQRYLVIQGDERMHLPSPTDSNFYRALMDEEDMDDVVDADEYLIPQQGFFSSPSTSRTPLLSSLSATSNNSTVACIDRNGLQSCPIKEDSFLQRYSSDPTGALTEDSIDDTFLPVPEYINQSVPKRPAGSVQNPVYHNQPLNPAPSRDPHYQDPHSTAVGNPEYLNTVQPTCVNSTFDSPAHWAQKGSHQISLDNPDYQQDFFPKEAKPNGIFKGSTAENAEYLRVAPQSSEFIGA
Method: The quantity depends mainly on the volumes which are still to be pipetted, the buffer being intended to make the volume of the phosphorylation assay up to the total of 100 μl.
Then 10 μl of 10% (v/v) DMSO solution are added, or if a substance is to be tested for possible enzyme-modulating properties, 10 μl of a test substance, i.e. a possible inhibitor or activator, dissolved in 10% (v/v) of DMSO, are pipetted in.
If an enzymatic reaction is to take place, the enzyme is added at this stage.
Then the substrate is added. The amounts of the substrates Poly-(Glu, Tyr) 4:1, (SEQ ID NO.:2) M-2165 and (SEQ ID NO.:3) Raytide™ EL used are specified in each case.
The reaction of phosphorylation is started here by the addition of 10 μl of the 1 mM ATP solution.
The incubation time is 30 minutes at +30° C., for example.
After the end of the incubation period, 20 μl of antibody solution (1.6.) are pipetted in, for example. The receptor, in this case the antibody, is used in excess. The amount which corresponds to an excess can very easily be determined by anyone skilled in the art by means of experiments on binding to a sensor surface to which a substance with a receptor binding site is coupled, with increasing amounts of receptor. In the case of reactions of phosphorylation, increasing amounts of receptor are used with a constant amount of substrate and kinase.
The incubation time with the antibody may be, for example, 30 minutes at ambient temperature.
After the end of the incubation period 50 μl of incubation mixture are taken and pipetted into the prepared measuring cell with the sensor to whose surface is coupled a substance with a receptor binding site.
The layer thickness of the sensor is measured, for example, by Reflectometric Interference Spectroscopy (RIfS) using a SPEKOL 1100 simultaneous spectral photometer made by Messrs Zeiss Jena, modified according to Schmitt et al. 1997.
The receptor (in this case the antibody) is used in excess, so that even if there is a total enzymatic reaction (in this case phosphorylation) of the substrate at least a slight binding signal will still be obtained by the binding of the receptor (antibody) to the sensor surface.
The reaction of phosphorylation is started by the addition of ATP.
At the start of the experiment a control and a complete phosphorylation without the addition of inhibitor are carried out.

[3] = Layer thickness formation (binding) on the phospho-tyrosine-diamino-PEG 2000 sensor surface, RIfS; details: for Optical layer thickness (binding) / Optical layer thickness (non-specific binding): EGF-RK buffer
Method: (§1) A conventional aminodextrane (AMD) sensor or a diamino PEG 2000 sensor is used (e.g. Schütz A., 2000; a) Piehler J., et al., 1996; Universität Tübingen, Inst. f. Physikalische and Theoretische Chemie, Germany.)
(§2) 20 μl aliquots of the final solution are immediately added drop by drop to the sensor surface which is about 1 cm^2 in size, and incubated for 8 hours under DMF chamber saturation. Then the sensor is rinsed with DMF and dried in the air.

[4] = Layer thickness formation (binding) on the phospho-tyrosine-AMD sensor surface, RIfS; details: for Optical layer thickness (increase): Hepes buffer pH 7.40, Raytide EL or antibody 1.0 μg/50 μl, kinase 1 Unit/50 μl
Method: as §1, §2
The buffer used is p60c-src-kinase buffer, pH=7.40, with the final concentrations of 50 mM of Hepes and 30 mM of magnesium chloride in the incubation mixture.
The layer thickness formation of p60c-src-kinase (1 Unit/50 μl) in the presence of Brij 35 is investigated. […] Increasing concentrations of Brij 35 (% v/v) are added to the buffer.
Use of alternative substrates, kinase and sensors in a process according to the invention. […] The buffer used is Hepes buffer pH=7.40 with 50 mM of Hepes and 30 mM of magnesium chloride. The buffer contains 0.5% v/v mercaptoethanol, 0.05% v/v Brij 35 and 10 μg/50 μl albumin.
First, the antibody, then the kinase and the substrate are measured on their own in order to be able to evaluate any non-specific binding.

[5] = Table 8: EGF-RK buffer with Brij 35, substrate 10 μg/50 μl, EGF-RK 0.1 Unit/50 μl, EGF 0.5 μg/50 μl

Sequence of EGF-RK (P00533 25-1210): as above

Question: For `O=CN/C=C/c1cc(O)ccc1O` [Erbstatin], which “Inhibitor strength described in the literature” value [1] is on record?
Answer: weak inhibitor

Question: With `COC(=O)/C=C/c1cc(O)ccc1O` [erbstatin analogue, Erbstatin Analogue] as the compound, how does the Optical layer thickness ([2]; 10^-3M inhibitor) read?
Answer: 1.170 nm

Question: And the Optical layer thickness ([2]; 10^-4M inhibitor)?
Answer: 0.728 nm

Question: And the Optical layer thickness ([2]; 10^-5M inhibitor)?
Answer: 0.702 nm

Question: And the Optical layer thickness ([2]; 10^-6M inhibitor)?
Answer: 0.442 nm

Question: What about the Optical layer thickness ([2]; 10^-7M inhibitor) of the same compound?
Answer: 0.489 nm

Question: What about the Optical layer thickness ([2]; 10^-8M inhibitor) of the same compound?
Answer: 0.526 nm

Question: And the “Inhibition of phosphorylation” value ([2]; up to 10^-3M)?
Answer: incomplete even at higher concentrations

Question: Which results are given for “Ac-Ile-Tyr-Gly-Glu-Phe-NH2 (Ac-IYGEF-NH2; also: phosphorylated, site not given here) [M-2165, Oligopeptide kinase substrate, Messrs; Bachem]”?
Answer: Optical layer thickness, component on its own ([3]; Table 13 a: Hepes buffer pH 7.40, 0.5% mercaptoethanol, 0.05% Brij 35, albumin 10 μg/50 μl, M-2165 10 μg/50 μl, p60c-src-kinase 2 Units/50 μl): 0.285 nm; Optical layer thickness, component on its own ([4]; Table 13: Hepes buffer pH 7.40, 0.5% mercaptoethanol, 0.05% Brij 35, albumin 10 μg/50 μl, M-2165 10 μg/50 μl, p60c-src-kinase 4 Units/50 μl): 0.230 nm

Question: With “EGF: Epidermal Growth Factor, activator for phosphorylation with EGF-RK” as the compound, how does the “Optical layer thickness (binding)” value ([3]; EGF 0.5 Units + Brij 35 (0.01% v/v)) read?
Answer: 0.320 nm

Question: And the “Optical layer thickness (binding)” value ([3]; EGF 0.5 Units, no Brij 35)?
Answer: 0.814 nm

Question: And the “Optical layer thickness (binding)” value ([3]; EGF 1.0 Units + Brij 35 (0.01% v/v))?
Answer: 0.484 nm

Question: And the “Optical layer thickness (binding)” value ([3]; EGF 1.0 Units, no Brij 35)?
Answer: 0.833 nm

Question: And the “Optical layer thickness, component on its own” value [3, 5]?
Answer: 0.355 nm

Question: Which “Optical layer thickness, component on its own” value ([3]; Table 12: EGF-RK buffer with Brij 35, Raytide EL 2 μg/50 μl, EGF-RK 0.5 Units/50 μl) does the source give for “Lys-Lys-Lys-Gly-Pro-Trp-Leu-Glu-Glu-Glu-Glu-Glu-Ala-Tyr-Gly-Trp-Leu-Asp-Phe (KKKGPWLEEEEEAYGWLDF; also: phosphorylated modified substrate, site not given here) [Raytide ™ EL, Protein-tyrosine-kinase substrate, Messrs; Calbiochem]” here?
Answer: 0.127 nm

Question: What about the “Optical layer thickness (increase)” value ([4]; with 0.001% Brij 35 (v/v)) of the same compound?
Answer: 0.067 nm

Question: What about the “Optical layer thickness (increase)” value ([4]; with 0.002% Brij 35 (v/v)) of the same compound?
Answer: 0.083 nm

Question: And the “Optical layer thickness (increase)” value ([4]; with 0.01% Brij 35 (v/v))?
Answer: 0.000 nm

Question: And the “Optical layer thickness (increase)” value ([4]; with 0.02% Brij 35 (v/v))?
Answer: 0.000 nm

Question: And the “Optical layer thickness (increase)” value ([4]; with 0.1% Brij 35 (v/v))?
Answer: 0.000 nm

Question: What about the “Optical layer thickness (increase)” value ([4]; with 0.2% Brij 35 (v/v)) of the same compound?
Answer: 0.000 nm

Question: What about the “Optical layer thickness (increase)” value ([4]; without Brij 35) of the same compound?
Answer: 0.169 nm

Question: Which “Optical layer thickness (non-specific binding)” value ([3]; 0.5 μg PGT) does the source give for Poly-(Glu, Tyr) 4:1 [PGT] here?
Answer: 0.064 nm

Question: And the “Optical layer thickness (non-specific binding)” value ([3]; 1.0 μg PGT)?
Answer: 0.026 nm

Question: And the “Optical layer thickness (non-specific binding)” value ([3]; 2.0 μg PGT)?
Answer: 0.000 nm

Question: And the “Optical layer thickness (non-specific binding)” value ([3]; 5.0 μg PGT)?
Answer: 0.052 nm

Question: And the “Optical layer thickness (non-specific binding)” value ([3]; 10 μg PGT)?
Answer: 0.065 nm

Question: What about the “Optical layer thickness (non-specific binding)” value ([3]; 20 μg PGT) of the same compound?
Answer: 0.054 nm

Question: What about the “Optical layer thickness (non-specific binding)” value ([3]; 50 μg PGT) of the same compound?
Answer: 0.113 nm

Question: And the “Optical layer thickness (non-specific binding)” value ([3]; 100 μg PGT)?
Answer: 0.084 nm

Question: What about the “Optical layer thickness, component on its own” value [3, 5] of the same compound?
Answer: 0 nm

Question: What about the “Optical layer thickness, component on its own” value ([3]; Table 9: EGF-RK buffer with Brij 35, substrate 10 μg/50 μl, EGF-RK 2 Units/50 μl) of the same compound?
Answer: 0 nm
